Results: ChEMBL document CHEMBL1201862, “PubChem BioAssay data set” (2004)
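1) Cells in 96-well plates. 2) Compound, 48 h, 5 concentrations. 3) Linear interpolation between surrounding doses. 4) Unreached endpoint = highest concentration. GI50: concentration for 50% inhibition of growth.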 Activity calls are given as the source filed them. Rule as the data show it: active = GI50 up to about 1.1 µM and inactive = higher.

Key:
Assay in all cases: NCI anticancer screen, dose series, 48 h
786-0 = system: 786-0
A549 = system: A549
ACHN = system: ACHN
BT-549 = system: BT-549
CAKI-1 = system: CAKI-1
CCRF-CEM = system: CCRF-CEM
COLO 205 = system: COLO 205
DU-145 = system: DU-145
EKVX = system: EKVX
HCT-116 = system: HCT-116
HCT-15 = system: HCT-15
HL-60 = system: HL-60
HOP-62 = system: HOP-62
HOP-92 = system: HOP-92
HT-29 = system: HT-29
Hs-578T = system: Hs-578T
IGROV-1 = system: IGROV-1
K562 = system: K562
KM12 = system: KM12
LOX IMVI = system: LOX IMVI
M14 = system: M14
MCF7 = system: MCF7
MDA-MB-231 = system: MDA-MB-231
MDA-MB-435 = system: MDA-MB-435
MOLT-4 = system: MOLT-4
Malme-3M = system: Malme-3M
NCI-H226 = system: NCI-H226
NCI-H23 = system: NCI-H23
NCI-H460 = system: NCI-H460
NCI-H522 = system: NCI-H522
NCI/ADR-RES = system: NCI/ADR-RES
OVCAR-3 = system: OVCAR-3
OVCAR-4 = system: OVCAR-4
OVCAR-5 = system: OVCAR-5
OVCAR-8 = system: OVCAR-8
PC-3 = system: PC-3
RPMI-8226 = system: RPMI-8226
RXF 393 = system: RXF 393
SF-268 = system: SF-268
SF-295 = system: SF-295
SF-539 = system: SF-539
SK-MEL-28 = system: SK-MEL-28
SK-MEL-2 = system: SK-MEL-2
SK-MEL-5 = system: SK-MEL-5
SK-OV-3 = system: SK-OV-3
SN12C = system: SN12C
SNB-19 = system: SNB-19
SNB-75 = system: SNB-75
SR = system: SR
SW-620 = system: SW-620
T47D = system: T47D
TK-10 = system: TK-10
U-251 = system: U-251
UACC-257 = system: UACC-257
UACC-62 = system: UACC-62
UO-31 = system: UO-31

COc1ccc2c(C)cc(N/N=C/c3ccc(OC)c4ccccc34)nc2c1
GI50 (786-0): 12.1 µM (inactive) | GI50 (A549): 18.6 µM (inactive) | GI50 (ACHN): 4.48 µM (inactive) | GI50 (BT-549): 20.1 µM (inactive) | GI50 (CAKI-1): 13.4 µM (inactive) | GI50 (CCRF-CEM): 1.93 µM (inactive) | GI50 (COLO 205): 16.7 µM (inactive) | GI50 (DU-145): 4.36 µM (inactive) | GI50 (EKVX): 17.7 µM (inactive) | GI50 (HCT-116): 5.35 µM (inactive) | GI50 (HCT-15): 10.1 µM | GI50 (HL-60): 20.8 µM (inactive) | GI50 (HOP-62): 18.2 µM (inactive) | GI50 (HOP-92): 11.2 µM (inactive) | GI50 (HT-29): 7.82 µM (inactive) | GI50 (Hs-578T): 15.7 µM (inactive) | GI50 (IGROV-1): 14.9 µM (inactive) | GI50 (K562): 10.1 µM (inactive) | GI50 (KM12): 13.2 µM (inactive) | GI50 (LOX IMVI): 3.71 µM (inactive) | GI50 (M14): 17.1 µM (inactive) | GI50 (MCF7): 19.4 µM (inactive) | GI50 (MDA-MB-231): 4.91 µM (inactive) | GI50 (MDA-MB-435): 11.2 µM (inactive) | GI50 (MOLT-4): 3.97 µM (inactive) | GI50 (Malme-3M): 17.5 µM (inactive) | GI50 (NCI-H226): 12.9 µM (inactive) | GI50 (NCI-H23): 16.5 µM (inactive) | GI50 (NCI-H460): 16.6 µM (inactive) | GI50 (NCI-H522): 12 µM (inactive) | GI50 (NCI/ADR-RES): 14.4 µM (inactive) | GI50 (OVCAR-3): 2.96 µM (inactive) | GI50 (OVCAR-4): 19 µM (inactive) | GI50 (OVCAR-5): 14 µM (inactive) | GI50 (OVCAR-8): 18.5 µM (inactive) | GI50 (PC-3): 16.9 µM (inactive) | GI50 (RPMI-8226): 2.78 µM (inactive) | GI50 (RXF 393): 16.7 µM (inactive) | GI50 (SF-268): 15.9 µM (inactive) | GI50 (SF-295): 16.8 µM (inactive) | GI50 (SF-539): 15.8 µM (inactive) | GI50 (SK-MEL-28): 16.1 µM (inactive) | GI50 (SK-MEL-2): 19.2 µM (inactive) | GI50 (SK-MEL-5): 16.4 µM (inactive) | GI50 (SK-OV-3): 17.3 µM (inactive) | GI50 (SN12C): 2.13 µM (inactive) | GI50 (SNB-19): 18.8 µM (inactive) | GI50 (SNB-75): 22.9 µM (inactive) | GI50 (SR): 4.17 µM (inactive) | GI50 (SW-620): 7.06 µM (inactive) | GI50 (T47D): 5.51 µM (inactive) | GI50 (TK-10): 17.3 µM (inactive) | GI50 (U-251): 3.66 µM (inactive) | GI50 (UACC-257): 19.3 µM (inactive) | GI50 (UACC-62): 14.3 µM (inactive) | GI50 (UO-31): 12.6 µM (inactive)
